The term IC50 denotes the point on the concentration scale where inhibition reaches its midpoint.

Structures are written as SMILES.

IC50 data for 25 compounds are collected here from patent US20140187548A1, “6 SUBSTITUTED IMIDAZOPYRAZINES FOR USE AS MPS-1 AND TKK INHIBITORS IN THE TREATMENT OF HYPERPROLIFERATIVE DISORDERS” (BAYER INTELLECTUAL PROPERTY GMBH, priority 2010, published 2014).

The test has as its target T1, human kinase Mps-1 (Homo sapiens, UniProt P33981).
T1 construct: N-terminally GST-tagged human full length recombinant Mps-1 kinase; GST (N); purchased Invitrogen, Karslruhe, Germany PV4071
T1 sequence (P33981 1-857): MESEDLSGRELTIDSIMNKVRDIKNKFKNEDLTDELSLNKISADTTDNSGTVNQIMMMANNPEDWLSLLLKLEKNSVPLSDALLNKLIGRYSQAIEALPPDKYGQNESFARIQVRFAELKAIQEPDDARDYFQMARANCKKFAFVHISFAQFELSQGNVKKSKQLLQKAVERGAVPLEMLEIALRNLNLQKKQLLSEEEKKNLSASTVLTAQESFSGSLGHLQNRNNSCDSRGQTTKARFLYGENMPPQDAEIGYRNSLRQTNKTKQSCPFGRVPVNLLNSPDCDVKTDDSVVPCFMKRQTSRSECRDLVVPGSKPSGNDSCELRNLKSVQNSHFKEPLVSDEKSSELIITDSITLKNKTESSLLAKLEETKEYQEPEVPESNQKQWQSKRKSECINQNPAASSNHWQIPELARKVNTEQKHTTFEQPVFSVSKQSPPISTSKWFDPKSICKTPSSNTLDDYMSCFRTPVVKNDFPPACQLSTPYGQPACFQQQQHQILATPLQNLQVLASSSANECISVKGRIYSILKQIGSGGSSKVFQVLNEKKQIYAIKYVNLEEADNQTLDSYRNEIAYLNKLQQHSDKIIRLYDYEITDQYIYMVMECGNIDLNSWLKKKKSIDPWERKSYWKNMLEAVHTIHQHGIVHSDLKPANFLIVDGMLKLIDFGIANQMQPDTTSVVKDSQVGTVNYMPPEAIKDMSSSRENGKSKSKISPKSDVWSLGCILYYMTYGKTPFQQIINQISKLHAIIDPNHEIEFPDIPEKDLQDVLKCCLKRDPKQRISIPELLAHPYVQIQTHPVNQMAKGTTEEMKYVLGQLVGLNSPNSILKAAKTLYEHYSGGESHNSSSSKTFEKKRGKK
In words: Mps-1 kinase assay (TR-FRET). It counts as biochemical. The note with it: N-terminally GST-tagged human full length recombinant Mps-1; 10 μM ATP; 1 μM peptide substrate; 15 min pre-incubation; 60 min at 22° C. In a few lines:
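TR-FRET read-out: after 1 h binding at 22° C, Eu-labelled anti-phospho-Ser/Thr antibody transfers to SA-XLent on the phosphorylated biotinylated peptide. The enzyme is GST-tagged full-length human Mps-1, typically about 1 nM final, in the linear range.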
(In general: TR-FRET usually uses a lanthanide donor and a delayed reading to cut background.)

Take `O=C(NC1CC1)c1ccc(-c2cnc3c(NCCC(F)(F)F)nc(-c4ccccc4CO)cn23)cc1Cl` [Example 1-97, 2-chloro-N-cyclopropyl-4-{6-[2-(hydroxymethyl)phenyl]-8-[(3,3,3-trifluoropropyl)amino]imidazo[1,2-a]pyrazin-3-yl}benzamide]: the 50% inhibitory concentration (IC50) amounted to 5.1 nM.
For `CC(C)(O)CNc1nc(-c2ccc(F)cc2)cn2c(-c3ccc(C(=O)NC4CC4)c(Cl)c3)cnc12` [Example 1-98, 2-chloro-N-cyclopropyl-4-{6-(4-fluorophenyl)-8-[(2-hydroxy-2-methyl-propyl)amino]imidazo [1,2-a]pyrazin-3-yl} benzamide] the value was 12.9 nM; for `CN(C)c1ccc(-c2cn3c(-c4ccc(C(=O)NC5CC5)c(Cl)c4)cnc3c(NCC(C)(C)O)n2)cc1` [Example 1-99, 2-chloro-N-cyclopropyl-4-{6-[4-(dimethylamino)phenyl]-8-[(2-hydroxy-2-methylpropyl)amino]imidazo[1,2-a]pyrazin-3-yl}benzamide], 31.1 nM; for `CC(C)(O)CNc1nc(-c2ccccc2CO)cn2c(-c3ccc(C(=O)NC4CC4)c(Cl)c3)cnc12` [Example 1-100, 2-chloro-N-cyclopropyl-4-{6-[2-(hydroxymethyl)phenyl]-8-[(2-hydroxy-2-methylpropyl)amino]imidazo[1,2-a]pyrazin-3-yl}benzamide], 86.5 nM.
Then `CC(C)(O)CNc1nc(-c2ccn[nH]2)cn2c(-c3ccc(C(=O)NC4CC4)c(Cl)c3)cnc12` [Example 1-101, 2-chloro-N-cyclopropyl-4-{8-[(2-hydroxy-2-methyl-propyl)amino]-6-(1H-pyrazol-5-yl)imidazo [1,2-a]pyrazin-3-yl} benzamide], with 91.3 nM.
Turning to `CC(C)(O)CNc1nc(C2=CCOCC2)cn2c(-c3ccc(C(=O)NC4CC4)c(Cl)c3)cnc12` [Example 1-102, 2-chloro-N-cyclopropyl-4-{6-(3,6-dihydro-2H-pyran-4-yl)-8-[(2-hydroxy-2-methylpropyl)amino]imidazo[1,2-a]pyrazin-3-yl}benzamide], the 50% inhibitory concentration (IC50) came to 99 nM.
Turning to `O=C(NC1CC1)c1ccc(-c2cnc3c(NCC4CCCO4)nc(-c4ccc(F)cc4)cn23)cc1Cl` (stereo not shown) [Example 1-103, 2-chloro-N-cyclopropyl-4-{6-(4-fluorophenyl)-8-[(tetrahydrofuran-2-ylmethyl)amino]imidazo [1,2-a]pyrazin-3-yl} benzamide], the IC50 came to 28.7 nM.
In the case of `CN(C)c1ccc(-c2cn3c(-c4ccc(C(=O)NC5CC5)c(Cl)c4)cnc3c(NCC3CCCO3)n2)cc1` (stereo not shown) [Example 1-105, 2-chloro-N-cyclopropyl-4-{6-[4-(dimethylamino)phenyl]-8-[(tetrahydro-furan-2-ylmethyl)amino]imidazo[1,2-a]pyrazin-3-yl}benzamide], the IC50 worked out at 78.3 nM.
As to `O=C(NC1CC1)c1ccc(-c2cnc3c(NCC4CCCO4)nc(-c4ccccc4CO)cn23)cc1Cl` (stereo not shown) [Example 1-106, 2-chloro-N-cyclopropyl-4-{6-[2-(hydroxymethyl)phenyl]-8-[(tetrahydro-furan-2-ylmethyl)amino]imidazo[1,2-a]pyrazin-3-yl}benzamide], the IC50 was 56.2 nM.
With `Cn1nccc1CNc1nc(-c2ccc(F)cc2)cn2c(-c3ccc(C(=O)NC4CC4)c(Cl)c3)cnc12` [Example 1-107, 2-chloro-N-cyclopropyl-4-[6-(4-fluorophenyl)-8-{[(1-methyl-1H-pyrazol-5-yl)methyl]amino}imidazo[1,2-a]pyrazin-3-yl]benzamide], the half-maximal inhibitory concentration (IC50) was 13.2 nM.
For `CN(C)c1ccc(-c2cn3c(-c4ccc(C(=O)NC5CC5)c(Cl)c4)cnc3c(NCc3ccnn3C)n2)cc1` [Example 1-108, 2-chloro-N-cyclopropyl-4-(6-[4-(dimethylamino)phenyl]-8-{[(1-methyl-1H-pyrazol-5-yl)methyl]amino}imidazo [1,2-a]pyrazin-3-yl) benzamide] the value was 43.9 nM; for `CC(C)CNc1nc(-c2ccc(F)cc2)cn2c(-c3ccc(C(=O)NC4CC4)c(F)c3)cnc12` [Example 1-109, N-cyclopropyl-2-fluoro-4-{6-(4-fluorophenyl)-8-[(2-methylpropyl)amino]imidazo[1,2-a]pyrazin-3-yl}benzamide], 5.3 nM.
Then `CC(C)CNc1nc(-c2ccc(N(C)C)cc2)cn2c(-c3ccc(C(=O)NC4CC4)c(F)c3)cnc12` [Example 1-110, N-cyclopropyl-4-{6-[4-(dimethylamino)phenyl]-8-[(2-methylpropyl)amino]imidazo[1,2-a]pyrazin-3-yl}-2-fluoro-benzamide], with 12.6 nM; and `CC(C)CNc1nc(-c2ccccc2CO)cn2c(-c3ccc(C(=O)NC4CC4)c(F)c3)cnc12` [Example 1-111, N-cyclopropyl-2-fluoro-4-{6-[2-(hydroxymethyl)phenyl]-8-[(2-methyl-propyl)amino]imidazo [1,2-a]pyrazin-3-yl} benzamide], with 3 nM.
On to `O=C(NC1CC1)c1ccc(-c2cnc3c(NCCC(F)(F)F)nc(-c4ccc(F)cc4)cn23)cc1F` [Example 1-112, N-cyclopropyl-2-fluoro-4-{6-(4-fluorophenyl)-8-[(3,3,3-trifluoropropyl)amino]imidazo[1,2-a]pyrazin-3-yl}benzamide], for which the half-inhibitory concentration (IC50) came out at 2.6 nM.
For `CN(C)c1ccc(-c2cn3c(-c4ccc(C(=O)NC5CC5)c(F)c4)cnc3c(NCCC(F)(F)F)n2)cc1` [Example 1-113, N-cyclopropyl-4-{6-[4-(dimethylamino)phenyl]-8-[(3,3,3-trifluoropropyl)amino]imidazo[1,2-a]pyrazin-3-yl}-2-fluoro-benzamide], the IC50 was 11.2 nM.
For `O=C(NC1CC1)c1ccc(-c2cnc3c(NCCC(F)(F)F)nc(-c4ccccc4CO)cn23)cc1F` [Example 1-114, N-cyclopropyl-2-fluoro-4-{6-[2-(hydroxymethyl)phenyl]-8-[(3,3,3-tri-fluoropropyl)amino]imidazo[1,2-a]pyrazin-3-yl}benzamide] the value was 3.5 nM.
On to `CC(C)(O)CNc1nc(-c2ccc(F)cc2)cn2c(-c3ccc(C(=O)NC4CC4)c(F)c3)cnc12` [Example 1-115, N-cyclopropyl-2-fluoro-4-{6-(4-fluorophenyl)-8-[(2-hydroxy-2-methyl-propyl)amino]imidazo [1,2-a]pyrazin-3-yl} benzamide], for which the concentration for half-maximal inhibition (IC50) was 5.4 nM.
With `CC(C)(O)CNc1nc(-c2ccccc2CO)cn2c(-c3ccc(C(=O)NC4CC4)c(F)c3)cnc12` [Example 1-116, N-cyclopropyl-2-fluoro-4-{6-[2-(hydroxymethyl)phenyl]-8-[(2-hydroxy-2-methylpropyl)amino]imidazo[1,2-a]pyrazin-3-yl}benzamide], the IC50 turned out to be 34.7 nM.
For `CN(C)c1ccc(-c2cn3c(-c4ccc(C(=O)NC5CC5)c(F)c4)cnc3c(NCC3CCCO3)n2)cc1` (stereo not shown) [Example 1-117, N-cyclopropyl-4-{6-[4-(dimethylamino)phenyl]-8-[(tetrahydrofuran-2-ylmethyl)amino]imidazo [1,2-a]pyrazin-3-yl}-2-fluorobenzamide] the value was 28.8 nM; for `O=C(NC1CC1)c1ccc(-c2cnc3c(NCC4CCCO4)nc(-c4ccccc4CO)cn23)cc1F` (stereo not shown) [Example 1-118, N-cyclopropyl-2-fluoro-4-{6-[2-(hydroxymethyl)phenyl]-8-[(tetrahydro-furan-2-ylmethyl)amino]imidazo[1,2-a]pyrazin-3-yl}benzamide], 20.1 nM.
Turning to `Cn1nccc1CNc1nc(-c2ccc(F)cc2)cn2c(-c3ccc(C(=O)NC4CC4)c(F)c3)cnc12` [Example 1-119, N-cyclopropyl-2-fluoro-4-[6-(4-fluorophenyl)-8-{[(1-methyl-1H-pyrazol-5-yl)methyl]amino}imidazo[1,2-a]pyrazin-3-yl]benzamide], the half-inhibitory concentration (IC50) stood at 2.5 nM.
For the compound `CN(C)c1ccc(-c2cn3c(-c4ccc(C(=O)NC5CC5)c(F)c4)cnc3c(NCc3ccnn3C)n2)cc1` [Example 1-120, N-cyclopropyl-4-(6-[4-(dimethylamino)phenyl]-8-{[(1-methyl-1H-pyrazol-5-yl)methyl]amino}imidazo[1,2-a]pyrazin-3-yl)-2-fluorobenzamide], the half-inhibitory concentration (IC50) stood at 16.8 nM.
In the case of `Cn1nccc1CNc1nc(-c2ccccc2CO)cn2c(-c3ccc(C(=O)NC4CC4)c(F)c3)cnc12` [Example 1-121, N-cyclopropyl-2-fluoro-4-(6-[2-(hydroxymethyl)phenyl]-8-{[(1-methyl-1H-pyrazol-5-yl)methyl]amino}imidazo[1,2-a]pyrazin-3-yl)benzamide], the IC50 is 11.1 nM.
For `Cc1cc(-c2cnc3c(NCCC(F)(F)F)nc(-c4cccc(CO)c4)cn23)ccc1C(=O)NC1CC1` [Example 1-122, N-cyclopropyl-4-{6-[3-(hydroxymethyl)phenyl]-8-[(3,3,3-trifluoropropyl)amino]imidazo[1,2-a]pyrazin-3-yl}-2-methyl-benzamide] the value was 11.9 nM.
